The values below come from patent US8735414B2 (priority 2009, dated 2014).

SMILES strings stand for the structures. Bounds are passed on as bounds.

What is called melting point is the temperature, or range, at which the solid turns liquid. In general, IC50 refers to the concentration that inhibits the measured activity by half.

Data set [1] has as its system bicistronic HCV replicon (replicon RNA, GenBank Accession No. AJ242654). As to the kind of experiment: HCV Replicon Assay. Type of data set: cell-based. To be noted: Hepatitis C virus, 72 h, read-out: Replicon IC50. (In general: A replicon is a self-replicating genome or part of one, used to study replication in cells.)

In the case of `CCc1cc2c(cc1F)c(C(N)=O)c(-c1ccc(S(=O)(=O)NC(C)(C)C(F)(F)F)cn1)n2-c1ncccn1` [compound 978, 6-ethyl-5-fluoro-1-(pyrimidin-2-yl)-2-{5-[(1,1,1-trifluoro-2-methylpropan-2-yl)sulfamoyl]pyridin-2-yl}-1H-indole-3-carboxamide], the melting point was in the range of 261 to 269 °C. For the same compound, in data set [1], the IC50 lay in the range of 2000 to 5000 nM.
For the compound `CCc1cc2c(cc1F)c(C#N)c(-c1ccc(S(=O)(=O)NC(C)(C)C)cn1)n2-c1cnccn1` [compound 899, N-tert-butyl-6-[3-cyano-6-ethyl-5-fluoro-1-(pyrazin-2-yl)-1H-indol-2-yl]pyridine-3-sulfonamide], the melting point is 196 to 201 °C. Moreover, the IC50 in data set [1] was less than 500 nM.
Compound `CC(C)c1ccc2c(C#N)c(-c3ccc(S(=O)(=O)NC(CF)CF)cn3)n(C3CCC3)c2c1` [compound 43, 6-[3-cyano-1-cyclobutyl-6-(propan-2-yl)-1H-indol-2-yl]-N-(1,3-difluoropropan-2-yl)pyridine-3-sulfonamide] had a melting point of 135 to 140 °C. In data set [1], the IC50 was less than 500 nM.
In turn, `Cc1cc2c(cc1F)c(C#N)c(-c1ccc(S(=O)(=O)NC3(C(F)(F)F)CC3)cn1)n2C1CCC1` [compound 613, 6-(3-cyano-1-cyclobutyl-5-fluoro-6-methyl-1H-indol-2-yl)-N-[1-(trifluoromethyl)cyclopropyl]pyridine-3-sulfonamide] came in with a melting point of 223 to 232 °C. Further, the IC50 in data set [1] is less than 500 nM.
For `Cc1ccc2c(C#N)c(-c3ccc(S(=O)(=O)N[C@H](C)C(F)(F)F)cn3)n(C3CCCCC3)c2c1` [compound 213, 6-(3-cyano-1-cyclohexyl-6-methyl-1H-indol-2-yl)-N-[(2R)-1,1,1-trifluoropropan-2-yl]pyridine-3-sulfonamide] the same measures were 208 to 212 °C and less than 500 nM.
For the compound `CCS(=O)(=O)Nc1ccc(-c2c(C#N)c3ccc(OC(C)C)cc3n2C2CCC2)nn1` [compound 276, N-{6-[3-cyano-1-cyclobutyl-6-(propan-2-yloxy)-1H-indol-2-yl]pyridazin-3-yl}ethanesulfonamide], the melting point is 181 to 183 °C. Besides, the IC50 in data set [1] lay in the range of 2000 to 5000 nM.
For `Cc1ccc2c(C#N)c(-c3ccc(S(=O)(=O)N[C@H](C)C(F)(F)F)cn3)n(CC3CC3)c2c1` [compound 197, 6-[3-cyano-1-(cyclopropylmethyl)-6-methyl-1H-indol-2-yl]-N-[(2R)-1,1,1-trifluoropropan-2-yl]pyridine-3-sulfonamide] the same measures were 165 to 169 °C and less than 500 nM.
Compound `CC(C)NS(=O)(=O)c1cnc(-c2c(C#N)c3ccc(F)cc3n2C2CCCC2)nc1` [compound 141, 2-(3-cyano-1-cyclopentyl-6-fluoro-1H-indol-2-yl)-N-(propan-2-yl)pyrimidine-5-sulfonamide] came in with a melting point of 216 to 217 °C. Moreover, the IC50 in data set [1] lay within 500 to 2000 nM.
For `Cc1ccc2c(c1)c(C#N)c(-c1ccc(S(=O)(=O)NC(C)(C)C(F)(F)F)cn1)n2C1CCC1` [compound 480, 6-(3-cyano-1-cyclobutyl-5-methyl-1H-indol-2-yl)-N-(1,1,1-trifluoro-2-methylpropan-2-yl)pyridine-3-sulfonamide], the melting point is 182 to 187 °C. Besides, in data set [1], the IC50 is less than 500 nM.
As for `C[C@H](NS(=O)(=O)c1cnc(-c2c(C#N)c3cc(C#N)ccc3n2C2CCCC2)nc1)C1CC1` [compound 367, N-[(1S)-1-cyclopropylethyl]-2-(3,5-dicyano-1-cyclopentyl-1H-indol-2-yl)pyrimidine-5-sulfonamide], the melting point lay within 218 to 223 °C. Also, the IC50 in data set [1] lay within 500 to 2000 nM.
For `CC(C)(NS(=O)(=O)c1ccc(-c2c(C#N)c3cc(F)ccc3n2-c2ncccn2)nc1)C(F)(F)F` [compound 602, 6-[3-cyano-5-fluoro-1-(pyrimidin-2-yl)-1H-indol-2-yl]-N-(1,1,1-trifluoro-2-methylpropan-2-yl)pyridine-3-sulfonamide] the same measures were 231 to 234 °C and 500 to 2000 nM.
